The results in this text go back to ChEMBL document CHEMBL3593163, “Synthesis and Characterization of 5-Hydroxy-2-(2-phenylethyl)chromone (5-HPEC) and Its Analogues as Non-nitrogenous 5-HT2B Ligands” (J Nat Prod, 2015).

In test [1] the target is 5-hydroxytryptamine receptor 2A (Homo sapiens) (UniProt P28223). Kind of test: Displacement of [3H]ketanserin from human 5HT2A receptor expressed in HEKT cells membranes at 10 uM. Type of test: cell membranes. Background: Displacement assays read how much labelled ligand stays bound in the presence of the test substance.
Sequence of 5-hydroxytryptamine receptor 2A (Homo sapiens) (P28223 whole entry): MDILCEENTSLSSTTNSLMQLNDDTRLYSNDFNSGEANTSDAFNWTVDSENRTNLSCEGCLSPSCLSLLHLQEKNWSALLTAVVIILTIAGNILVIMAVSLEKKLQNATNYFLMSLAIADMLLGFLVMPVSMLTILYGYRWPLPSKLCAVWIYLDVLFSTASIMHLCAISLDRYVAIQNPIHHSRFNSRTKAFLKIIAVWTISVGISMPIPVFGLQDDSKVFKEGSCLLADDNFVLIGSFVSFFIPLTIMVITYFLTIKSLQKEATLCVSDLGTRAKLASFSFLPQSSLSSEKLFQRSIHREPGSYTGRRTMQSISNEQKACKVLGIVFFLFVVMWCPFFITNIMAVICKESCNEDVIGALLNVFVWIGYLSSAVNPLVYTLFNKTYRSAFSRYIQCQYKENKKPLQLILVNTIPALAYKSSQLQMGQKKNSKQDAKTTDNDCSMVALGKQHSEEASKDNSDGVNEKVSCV
In test [2] the target is T1, 5-hydroxytryptamine receptor 2C (Homo sapiens) (UniProt P28335).
T1 sequence (whole entry): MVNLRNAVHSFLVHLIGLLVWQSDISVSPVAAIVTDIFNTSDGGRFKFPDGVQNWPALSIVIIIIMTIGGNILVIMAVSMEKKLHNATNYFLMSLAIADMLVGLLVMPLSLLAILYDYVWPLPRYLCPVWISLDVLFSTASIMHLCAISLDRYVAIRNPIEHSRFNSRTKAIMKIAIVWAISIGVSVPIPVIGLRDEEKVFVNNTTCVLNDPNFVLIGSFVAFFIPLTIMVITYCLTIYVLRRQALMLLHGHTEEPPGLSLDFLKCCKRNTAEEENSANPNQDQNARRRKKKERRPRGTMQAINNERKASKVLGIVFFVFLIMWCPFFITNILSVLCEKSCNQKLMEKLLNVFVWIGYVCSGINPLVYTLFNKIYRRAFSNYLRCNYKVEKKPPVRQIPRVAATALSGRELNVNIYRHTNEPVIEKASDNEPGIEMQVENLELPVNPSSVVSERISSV
Kind of test: Displacement of [3H]mesulergine from human 5HT2C receptor expressed in Flp-IN HEK cell membranes at 10 uM. As to conditions: HEK293.

The target of test [3] is 5-hydroxytryptamine receptor 2B (Homo sapiens) (UniProt P41595). Kind of test: Displacement of [3H]LSD from human 5HT2B receptor expressed in stable HEK cells membranes at 10 uM. In kind it is cell membranes. The settings on record: HEK293.
Sequence of 5-hydroxytryptamine receptor 2B (Homo sapiens) (P41595 whole entry): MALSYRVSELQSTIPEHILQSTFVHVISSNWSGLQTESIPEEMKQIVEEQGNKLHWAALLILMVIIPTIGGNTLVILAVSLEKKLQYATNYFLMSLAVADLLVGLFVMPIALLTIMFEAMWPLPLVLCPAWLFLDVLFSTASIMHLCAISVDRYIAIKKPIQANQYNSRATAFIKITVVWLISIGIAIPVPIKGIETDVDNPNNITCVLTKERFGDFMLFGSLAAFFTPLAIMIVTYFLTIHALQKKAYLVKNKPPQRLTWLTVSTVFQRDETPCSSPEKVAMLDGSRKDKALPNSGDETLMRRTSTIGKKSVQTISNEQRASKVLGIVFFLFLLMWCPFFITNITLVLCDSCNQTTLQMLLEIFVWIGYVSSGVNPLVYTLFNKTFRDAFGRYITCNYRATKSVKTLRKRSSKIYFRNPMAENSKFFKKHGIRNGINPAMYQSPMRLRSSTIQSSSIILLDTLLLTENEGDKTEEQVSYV
The target is the same in test [4]. Kind of test: Antagonist activity against human 5HT2B receptor expressed in Flp-IN HEK cells assessed as inhibition of 5-HT-induced response at 10 uM by calcium mobilization assay. As to conditions: HEK293. Type of test: functional, cell-based. For orientation: Calcium assays in cells follow changes in intracellular calcium, usually with a dye or a luminescent sensor.

Test [5] shares this target. Kind of test: Agonist activity at human 5HT2B receptor expressed in Flp-IN HEK cells at 10 um by calcium mobilization assay relative to 5-HT. As to conditions: HEK293. Type of test: functional, cell-based.
Test [6] has the same target. Kind of test: Potency index, ratio of pKi for 5-HPEC to pKi for test compound against human 5HT2B receptor expressed in stable HEK cells membranes. Type of test: cell-based. The settings on record: HEK293.

Broadly, the inhibition is the share of the control response that was lost under treatment. As for `O=c1cc(CCc2cccc(O)c2)oc2cc(O)ccc12`, the inhibition worked out at 23.2% in test [1], 0% in test [2] and 25.3% in test [3].
In the case of `O=c1cc(COc2ccccc2)oc2cccc(O)c12`, the inhibition in test [2] turned out to be 7%.
Consider `O=c1cc(CCc2ccccc2O)oc2cc(O)ccc12`, for which the figures for the inhibition in test [1], in test [2] and in test [3] were 47.9%, 44% and 16.6%, respectively.
With `O=c1cc(CCc2ccc(O)cc2)oc2cc(O)ccc12`, the values for the inhibition in test [1], in test [2] and in test [3] were 33.3%, 53.1% and 40.8%, respectively.
Take `O=c1cc(CCCc2ccccc2)oc2cccc(O)c12`: the inhibition in test [4] is 20.5%. In addition, the Efficacy in test [5] was found to be 0.23%. For the same compound, the Ratio in test [6] was found to be 10.
`O=c1cc(CCc2ccccc2O)oc2cccc(O)c12`: the inhibition in test [1] was found to be 24.3%; in test [2], 23.8%; in test [3], 12.8%.
Turning to `O=c1cc(CCc2ccco2)oc2cccc(O)c12`, the inhibition amounted to 12.4% in test [1], 24.2% in test [2] and 68.8% in test [3].
Taken in the same sequence, the figures for `O=c1cc(CCc2cccc(O)c2)oc2cccc(O)c12` were 39%, 30.4% and 76.3%.
Taken in the same sequence, the figures for `O=c1cc(COCc2ccccc2)oc2cccc(O)c12` were 3.2%, 42.1% and 77.7%.
For `O=c1cc(CCc2ccccc2)oc2cc(O)ccc12`, the inhibition in test [1] stood at 35.5%; in test [2], 33.7%; in test [3], 34.2%.
